How the values were obtained:
[1] = test system: Botrytis cinerea; assay: Test B: tomato Botrytis, preventive spray on tomato seedlings, visual disease rating; conditions: for Test B rating (% disease control) / Test B disease control rating: tomato Botrytis, 100 = 100% disease control; for Test B disease control rating: 0 = no disease control relative to controls; for pest or weed control at 200 µg/mL: Botrytis cinerea, in Solanum lycopersicum, 120 h, read-out: Test B disease control rating
[2] = test system: Erysiphe graminis f sp. tritici; assay: Test J: wheat powdery mildew, preventive spray on wheat seedlings, visual disease rating; conditions: for Test J rating (% disease control) / Test J disease control rating: wheat powdery mildew, 100 = 100% disease control; for Test J disease control rating: sprayed the day before inoculation, 0 = no disease control relative to controls; for pest or weed control at 200 µg/mL: Blumeria graminis, in Triticum aestivum, 192 h, read-out: Test J disease control rating
Text: (§1) General protocol for preparing test suspensions for Tests A-J: the test compounds were first dissolved in acetone in an amount equal to 3% of the final volume and then suspended at the desired concentration (in ppm) in acetone and purified water (50/50 mix by volume) containing 250 ppm of the surfactant Trem® 014 (polyhydric alcohol esters). The resulting test suspensions were then used in Tests A-J. Spraying a 200 ppm test suspension to the point of run-off on the test plants was the equivalent of a rate of 500 g/ha. Unless otherwise indicated, the rating values indicate a 200 ppm test suspension was used. (An asterisk “*” next to the rating value indicates a 40 ppm test suspension was used.)
The test suspension was sprayed to the point of run-off on wheat seedlings. The following day the seedlings were inoculated with a spore dust of Erysiphe graminis f sp. tritici, (the causal agent of wheat powdery mildew) and incubated in a growth chamber at 20° C. for 8 days, after which time visual disease ratings were made.

[3] = test system: Septoria nodorum; assay: Test F: Septoria glume blotch, preventive spray on wheat seedlings, visual disease rating; conditions: for Test F rating (% disease control) / Test F disease control rating: 100 = 100% disease control; for Test F disease control rating: 0 = no disease control relative to controls; for pest or weed control at 200 µg/mL: Parastagonospora nodorum, in Triticum aestivum, 192 h, read-out: Test F disease control rating
[4] = test system: Septoria tritici; assay: Test G: wheat leaf blotch, preventive spray on wheat seedlings, visual disease rating; conditions: for Test G rating (% disease control) / Test G disease control rating: wheat leaf blotch, 100 = 100% disease control; for Test G disease control rating: sprayed the day before inoculation, 0 = no disease control relative to controls; for pest or weed control at 200 µg/mL: Zymoseptoria tritici, in Triticum aestivum, 504 h, read-out: Test G disease control rating
[5] = test system: Alternaria solani; assay: Test C: tomato early blight, preventive spray on tomato seedlings, visual disease rating; conditions: for Test C rating (% disease control) / Test C disease control rating: tomato early blight, 100 = 100% disease control; for Test C disease control rating: 0 = no disease control relative to controls; for pest or weed control at 200 µg/mL: Alternaria solani, in Solanum lycopersicum, 168 h, read-out: Test C disease control rating
[6] = test system: Puccinia recondita f. sp. tritici; assay: Test H: wheat leaf rust, curative spray on inoculated wheat seedlings, visual disease rating; conditions: for Test H rating (% disease control) / Test H disease control rating: wheat leaf rust, 100 = 100% disease control; for Test H disease control rating: sprayed after inoculation, 0 = no disease control relative to controls; for pest or weed control at 200 µg/mL: 144 h, read-out: Test H disease control rating
Text: as §1
Wheat seedlings were inoculated with a spore suspension of Puccinia recondita f. sp. tritici (the causal agent of wheat leaf rust) and incubated in a saturated atmosphere at 20° C. for 24 h, and then moved to a growth chamber at 20° C. for 2 days. At the end of this time the test suspension was sprayed to the point of run-off, and then the seedlings were moved to a growth chamber at 20° C. for 6 days after which time visual disease ratings were made.

[7] = test system: Puccinia recondita f. sp. tritici; assay: Test I: wheat leaf rust, preventive spray on wheat seedlings, visual disease rating; conditions: for Test I rating (% disease control) / Test I disease control rating: wheat leaf rust, 100 = 100% disease control; for Test I disease control rating: sprayed the day before inoculation, 0 = no disease control relative to controls; for pest or weed control at 200 µg/mL: 192 h, read-out: Test I disease control rating
[8] = preventive spray, 0 = no control
[9] = Septoria glume blotch on wheat, preventive spray, 0 = no control
[10] = 0 = no control relative to controls
[11] = Septoria glume blotch, 0 = no control relative to controls
[12] = curative, 0 = no control relative to controls
[13] = preventive, 0 = no control relative to controls

SMILES | Test B rating (% disease control) [1, 8] | Test J rating (% disease control) [2, 8] | Test F rating (% disease control) [3, 9] | Test G rating (% disease control) [4, 8] | Test C rating (% disease control) [5, 8] | Test H rating (% disease control) ([6]; curative spray, 0 = no control) | Test I rating (% disease control) [7, 8] | other results
COc1cc(F)c(-c2c(C)nn(C)c2Nc2ccc(OC)cc2OC)c(F)c1 [compound 51] | 100% | 78% | 0% | 100% | 0% | 0% | 89% | 
Cc1nn(C)c(Oc2ccc([N+](=O)[O-])c(C#N)c2)c1-c1c(F)cc(F)cc1F [compound 156] |  |  |  |  |  |  |  | Test B rating (% disease control) [1, 10]: 94%; Test J rating (% disease control) [2, 10]: 47%; Test F rating (% disease control) [3, 11]: 0%; Test G rating (% disease control) [4, 10]: 73%; Test C rating (% disease control) [5, 10]: 0%; Test H rating (% disease control) [6, 12]: 0%; Test I rating (% disease control) [7, 13]: 41%
Cc1nn(C)c(Nc2c(F)cc(F)cc2F)c1-c1ccc(Cl)cc1Cl [compound 75] | 100% | 97% | 98% | 99% | 98% | 95% | 99% | 
CCn1nc(C)c(-c2ccc(Cl)cc2Cl)c1Nc1ccc(F)cc1F [compound 70] | 99% | 98% | 0% | 99% | 0% | 41% | 85% | 
Cc1nn(C)c(Nc2ccc(F)cc2F)c1-c1c(F)cc(C#N)cc1F [compound 106] | 100% | 100% | 90% | 100% | 99% | 82% | 99% | 
Cc1nn(C)c(Nc2ccc(F)cc2F)c1-c1c(Cl)cccc1Cl [compound 339] |  |  |  |  |  |  |  | Test B disease control rating [1]: 100%; Test J disease control rating [2]: 100%; Test F disease control rating ([3]; Septoria glume blotch on wheat): 0%; Test G disease control rating [4]: 100%; Test C disease control rating [5]: 0%; Test H disease control rating [6]: 0%; Test I disease control rating [7]: 98%
Cc1nn(C)c(Oc2ccc([N+](=O)[O-])cc2F)c1-c1ccc(F)cc1Cl [compound 20] | 100% | 99% | 100% | 100% | 99% | 79% | 100% | 
Cc1nn(C)c(Oc2c(F)cc(C#N)cc2F)c1-c1cccc(F)c1 [compound 43] | 76% | 99% | 0% | 97% | 0% | 66% | 82% | 
Cc1nn(C)c(Nc2c(F)cc(C#N)cc2F)c1-c1c(F)cccc1Cl [compound 192] |  |  |  |  |  |  |  | Test B rating (% disease control) [1, 10]: 97%; Test J rating (% disease control) [2, 10]: 99%; Test F rating (% disease control) [3, 11]: 73%; Test G rating (% disease control) [4, 10]: 100%; Test C rating (% disease control) [5, 10]: 100%; Test H rating (% disease control) [6, 12]: 0%; Test I rating (% disease control) [7, 13]: 99%
Cc1nn(C)c(Nc2ccc(Br)cc2F)c1-c1ccc(F)cc1Cl [compound 366] |  |  |  |  |  |  |  | Test B disease control rating [1]: 100%; Test J disease control rating [2]: 100%; Test F disease control rating ([3]; Septoria glume blotch on wheat): 0%; Test G disease control rating [4]: 100%; Test C disease control rating [5]: 58%; Test H disease control rating [6]: 9%; Test I disease control rating [7]: 99%
COc1cc(F)c(-c2c(C)nn(C)c2Oc2c(F)cc(Br)cc2F)c(F)c1 [compound 90] | 99% | 100% | 84% | 100% | 95% | 0% | 98% | 
COc1cc(Nc2c(-c3c(F)cc(C#N)cc3F)c(C)nn2C)ccc1F [compound 127] | 70% | 0% | 0% | 99% | 0% | 0% | 68% | 
Cc1nn(C)c(Nc2c(F)cc(Br)cc2F)c1-c1ccc(F)cc1Cl [Compound 365, N-(4-bromo-2,6-difluorophenyl)-4-(2-chloro-4-fluorophenyl)-1,3-dimethyl-1H-pyrazol-5-amine] |  |  |  |  |  |  |  | pest or weed control at 200 µg/mL [1]: 100%; pest or weed control at 200 µg/mL [2]: 100%; pest or weed control at 200 µg/mL [3]: 64%; pest or weed control at 200 µg/mL [4]: 100%; pest or weed control at 200 µg/mL [5]: 99%; pest or weed control at 200 µg/mL [6]: 74%; pest or weed control at 200 µg/mL [7]: 100%
Cc1nn(C)c(Oc2ccc(F)cc2[N+](=O)[O-])c1-c1ccc(F)cc1Cl [compound 122] | 0% | 0% | 0% | 0% | 0% | 11% | 0% | 
Cc1nn(C)c(Nc2ccc(F)cc2F)c1-c1c(F)cccc1F [compound 178] |  |  |  |  |  |  |  | Test B rating (% disease control) [1, 10]: 100%; Test J rating (% disease control) [2, 10]: 100%; Test F rating (% disease control) [3, 11]: 80%; Test G rating (% disease control) [4, 10]: 98%; Test C rating (% disease control) [5, 10]: 100%; Test H rating (% disease control) [6, 12]: 0%; Test I rating (% disease control) [7, 13]: 83%
CC(=O)Nc1ccc(Oc2c(-c3ccc(F)cc3Cl)c(C)nn2C)c(F)c1 [compound 71] | 93% | 67% | 0% | 96% | 0% | 0% | 91% | 
Cc1nn(C)c(Nc2ccc(F)cc2)c1-c1c(Cl)cccc1Cl [compound 337] |  |  |  |  |  |  |  | Test B disease control rating [1]: 99%; Test J disease control rating [2]: 98%; Test F disease control rating ([3]; Septoria glume blotch on wheat): 0%; Test G disease control rating [4]: 99%; Test C disease control rating [5]: 0%; Test H disease control rating [6]: 9%; Test I disease control rating [7]: 41%
COc1ccc(Nc2c(-c3ccc(F)cc3F)c(C)nn2C)cc1OC [compound 72] | 0% | 0% | 0% | 0% | 0% | 59% | 0% | 
Cc1nn(C)c(Nc2c(F)cc(Cl)cc2F)c1-c1ccc(F)cc1Br [Compound 360, 4-(2-bromo-4-fluorophenyl)-N-(4-chloro-2,6-difluorophenyl)-1,3-dimethyl-1H-pyrazol-5-amine] |  |  |  |  |  |  |  | pest or weed control at 200 µg/mL [1]: 100%; pest or weed control at 200 µg/mL [2]: 100%; pest or weed control at 200 µg/mL [3]: 95%; pest or weed control at 200 µg/mL [4]: 100%; pest or weed control at 200 µg/mL [5]: 97%; pest or weed control at 200 µg/mL [6]: 79%; pest or weed control at 200 µg/mL [7]: 100%
COc1cc(Cl)c(Nc2c(-c3ccc(F)cc3Br)c(C)nn2C)c(Cl)c1 [compound 323] |  |  |  |  |  |  |  | Test B disease control rating [1]: 98%; Test F disease control rating ([3]; Septoria glume blotch on wheat): 0%; Test G disease control rating [4]: 98%; Test C disease control rating [5]: 0%; Test H disease control rating [6]: 0%; Test I disease control rating [7]: 94%
COc1cc(Cl)c(Nc2c(-c3ccc(F)cc3Cl)c(C)nn2C)c(Cl)c1 [compound 296] |  |  |  |  |  |  |  | Test B rating (% disease control) [1, 10]: 99%; Test F rating (% disease control) [3, 11]: 0%; Test G rating (% disease control) [4, 10]: 100%; Test C rating (% disease control) [5, 10]: 0%; Test H rating (% disease control) [6, 12]: 0%; Test I rating (% disease control) [7, 13]: 99%
